The values that follow come from patent publication US11583570B2, “Use of autoinducer-related pathway in inducing apoptosis and anti-infective therapy” (TSINGHUA UNIVERSITY, priority 2017, dated 2023).

The target of data set [1] is T1, TNFR1 (1-293) mutant (Homo sapiens, UniProt P19438).
T1 construct: human TNFR1 (1-293) mutant was amplified from human TNFR1 with specific primers and cloned into peGFP-N1 vector; expressed in transfected cells; host or cells: HeLa cells
T1 sequence (P19438 30-293): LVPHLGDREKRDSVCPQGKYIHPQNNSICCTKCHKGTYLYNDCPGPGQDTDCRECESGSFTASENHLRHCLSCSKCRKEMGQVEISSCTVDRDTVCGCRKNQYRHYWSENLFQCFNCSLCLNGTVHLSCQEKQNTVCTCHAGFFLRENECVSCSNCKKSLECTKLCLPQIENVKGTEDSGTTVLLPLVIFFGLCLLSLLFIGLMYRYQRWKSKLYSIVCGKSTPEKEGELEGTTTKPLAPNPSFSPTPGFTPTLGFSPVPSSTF
Put plainly: Single molecule photo-bleaching step counting (MSFQ), TNFR1 in HELA cells. Type of data set: cell-based. An excerpt: Then the cells were stimulated with HSLs, TNF α, or left untreated, and washed twice with PBS and fixed with 4% paraformaldehyde before imaging. GFP was excited at 488 nm with a laser power of 5 mW measured after the laser passing through the objective. […] The EM gain of the EMCCD camera was set at 300. Movies of 400 frames were acquired for each sample at a full-frame rate of 10 Hz. For imaging analysis, the background fluorescence was firstly subtracted from the movie acquired from the fixed cells using the rolling ball method in Image J software, and regions of interest on movies were selected manually according to the outline of cells. To analyze the bleaching steps, the fluorescence time courses of each fluorescent spots were first constructed by Image J plugin and bleaching steps were then counted manually.

In data set [2] the test system is THP-1 cell line. Put plainly: Annexin V/PI apoptosis detection, THP-1. Type of data set: cell-based, human. The following applies: THP-1, 3OC plus Emricasan, 1 hr, AnnexinV and PI. As to the method: (§1) Cell apoptosis was detected with Annexin V/PI apoptosis detection Kit. Briefly, cells were stimulated with HSLs or left untreated. 6 hrs later, cells were collected and stained with Annexin VFITC and PI for 15 min at RT, then the apoptotic effect was measured by flow cytometry. OT-I or OT-II splenocytes were pulsed with specific peptides or PMA and ionomycin mixture with or without HSLs or TNF α plus cycloheximide. 24 hrs later, cells and supernatants were collected separately. For OT-I activation, cells were stained with CD69 and CD8. For OT-II activation, cells were stained with CD69 and CD4. Cell activation was measured by flow cytometry. All supernatants were detected for IL-2 secretion by ELISA.
(§2) In order to verify TNFR1-FADD-caspase8-caspase3 pathway inhibitor can block immunocyte apoptosis caused by 3OC12-HSL clinically. The inventors use a clinical version of caspase inhibitor Emricasan as a test. […] To be specific, in a 12 plate, THP-1 cells were cultured with indicated concentrations of 3OC and Emricasan. After 1 hr, cells were collection for flow cytometric analysis of AnnexinV and PI. […] In FIG. 17b, live cell percentage of different treatment were enumerated by flow cytometry. Bar graphs of live cell percentage are depicted by mean±SEM. Then samples prepared as in FIG. 17a and FIG. 17b were used for WB analysis for the activation (cleavage) of Caspase 8 and 3. […]

The test system of data set [3] is mouse splenocytes. Put plainly: AnnexinV and PI staining, B6 splenocytes. Type of data set: cell-based. As to the method:
as §1, §2

Data set [4] relates to Caspase 8 and 3. The experiment in a line: WB analysis of Caspase 8 and 3 cleavage in THP-1. Type of data set: cell-based, human. Conditions: THP-1, 1 hr and 2 hr. As to the method: In order to verify TNFR1-FADD-caspase8-caspase3 pathway inhibitor can block immunocyte apoptosis caused by 3OC12-HSL clinically. The inventors use a clinical version of caspase inhibitor Emricasan as a test. […] To be specific, in a 12 plate, THP-1 cells were cultured with indicated concentrations of 3OC and Emricasan. After 1 hr, cells were collection for flow cytometric analysis of AnnexinV and PI. […] In FIG. 17b, live cell percentage of different treatment were enumerated by flow cytometry. Bar graphs of live cell percentage are depicted by mean±SEM. Then samples prepared as in FIG. 17a and FIG. 17b were used for WB analysis for the activation (cleavage) of Caspase 8 and 3. […] In FIG. 17c, the incubate time of the left panel is 1 hr, and the […] panel is 2 hr. (Casp 8: Caspase 8, Cld Casp 8: Cleaved-Caspase 8, Casp 3: Caspase 3, Cld Casp 3: Cleaved-Caspase 3). […] Furthermore, the inventors use B6 splenocytes (separated from C57BL/6 spleen) as the test.

The target in data set [5] is T2, TNFR1 (Mus musculus, UniProt P25118).
T2 construct: To track individual TNFR1 on the cell membrane; endogenous in cells
T2 sequence (P25118 30-454): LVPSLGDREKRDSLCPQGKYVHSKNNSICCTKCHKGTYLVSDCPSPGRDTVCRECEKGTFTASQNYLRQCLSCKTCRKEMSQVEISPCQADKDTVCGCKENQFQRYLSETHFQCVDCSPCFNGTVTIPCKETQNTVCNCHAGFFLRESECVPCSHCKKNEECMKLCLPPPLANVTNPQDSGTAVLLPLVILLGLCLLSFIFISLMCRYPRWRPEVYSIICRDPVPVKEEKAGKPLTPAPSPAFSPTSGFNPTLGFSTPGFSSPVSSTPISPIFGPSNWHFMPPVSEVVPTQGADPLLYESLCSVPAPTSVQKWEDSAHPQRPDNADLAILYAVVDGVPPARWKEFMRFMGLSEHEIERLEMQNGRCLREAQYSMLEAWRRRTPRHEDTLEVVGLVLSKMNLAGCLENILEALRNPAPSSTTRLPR
The experiment in a line: Quantum dot-based single particle tracking, TNFR1. Type of data set: cell-based. As to the method:
To track individual TNFR1 on the cell membrane, anti-TNFR1 IgG (was first papain digested to yield a Fab fragment. The Fab was then conjugated with biotin through the unique —SH at its C terminal. To prepare anti TNFR1 Fab QD conjugates, a solution of 0.7 nM anti TNFR1—Fab-biotin in 1 ml of DMEM was added drop-wise to 1 ml of 2 nM QD 605-streptavidin conjugate. Cell monolayers (50% confluent) previously serum starved for 1 hr were treated with 3OC12 HSL or left untreated and incubated with […] of the final anti TNFR1-Fab-QD solution at 25° C. for 2 min. The cells were then washed twice with PBS at 25° C., placed in serum-free medium, and loaded for imaging. For single-FcRγIIA tracking, Fc fragment was obtained by papain digestion of an anti-BSA IgG (Sigma Aldrich). Fc-QD conjugate was produced as described before. Cos-1 cells were transiently transfected with Fcγ RIIA plasmid, 24 hrs later, cells were stimulated with 3OC12 HSL or left untreated and incubated with […] of the final Fc-QD solution at 25° C. for 2 min. Quantum dot-labeled cells were imaged in TIRF mode. The fluorescence was excited at 488 nm and gated by a band-pass filter (575-640, Carl Zeiss). The excitation power was about 2 mW measured after the objective. Movies of 400 frames were acquired for each sample at a full-frame rate of 17 Hz. Individual trajectories were constructed by Utrack written in Matlab. Diffusion coefficient and plot area were calculated by customized programs written with Matlab. For motion pattern determination by MSD-t analysis 5: linear, simple Brownian diffusion; open-up parabolic, directed diffusion; open-down parabolic, restricted diffusion; and near zero, stationary.

Data set [6] concerns 3OC12 HSL-induced cytotoxicity. The experiment in a line: Caspase inhibitors against 3OC12 HSL cytotoxicity. Type of data set: cell-based. The following applies: in comparison with 3OC12 HSL treatment alone. As to the method: as §1

As to `CCCCCC(=O)CC(=O)N[C@H]1CCOC1=O` [3-oxo-C8], in data set [1], the “TNFR1 trimerization (three step quenching)” value was “failed to increase”.

Turning to `C[C@H](NC(=O)C(=O)Nc1ccccc1C(C)(C)C)C(=O)N[C@@H](CC(=O)O)C(=O)COc1c(F)c(F)cc(F)c1F` [Emricasan], the “blocking of 3OC12-HSL's apoptosis” value in data set [2] and in data set [3] was “good effect in blocking 3OC12-HSL's apoptosis” each time. For the same compound, in data set [4], the “blocking of Caspase 8 and 3 cleavage” value was “has effect in blocking 3OC12-HSL's apoptosis mediated by Caspase”.

Turning to MβCD, in data set [5], the TNFR1 diffusion coefficient entry is “higher diffusion coefficient” and the “TNFR1 x-y surface area coverage” value is “larger area coverage”.

As for TNFα, in data set [1], the “TNFR1 trimerization (three step quenching)” value is reported as “similarly occurred”.

In the case of Z-VAD, the “effect on 3OC12 HSL cytotoxicity” value in data set [6] is given as “reduced the cytotoxicity”.
